Assays:
[1] = tested on: Ewing's sarcoma cells (CHP-100); details: 72 hours, MTT, FIG. 5
Description: Relative viable cell number was quantified by MTT assay. Results are presented as a percentage compared to wells exposed to DMSO alone. […] Points: mean of triplicate determinations; Error bars: s.d.

[2] = tested on: Human umbilical vein endothelial cells (HUVEC); assay: Endothelial cell network (tube) formation on Matrigel; assay type: cell-based; details: 16 h, FIG. 6
Description: FIG. 6. […] Human umbilical vein endothelial cells (HUVEC) were seeded into Matrigel-coated wells and allowed to adhere for 1 h. Adherent cells were exposed to the indicated concentrations of withaferin A, epi-withaferin A (α-WA) or an equal volume of solvent vehicle (DMSO) for 16 h. Cells were washed 1× in PBS and fixed to visualize tube formation by light microscopy.

[3] = tested on: minimal heat shock response element derived from the promoter region of the Hsp70B gene; assay: Heat shock reporter (EGFP) induction; assay type: cell-based; details: overnight exposure, FIG. 8
Description: FIG. 8. Heat shock reporter induction measured by micro plate fluorimeter. Reporter cells stably transduced with a plasmid encoding enhanced green fluorescent protein (EGFP) under the control of a minimal heat shock response element were exposed to 2,3-dihydrowithaferin A-3β-O-sulfate (WA-SO4) or withaferin A (WA) at the indicated concentrations overnight. Relative fluorescence units (RFU) per well were determined as a measure of reporter activation. Each point represents the mean of nine determinations from three independent experiments.
Immortalized mouse embryo fibroblasts derived from homozygous Hsf1 knockout mice or their wild type littermates were exposed overnight to equitoxic concentrations of 1 or the known heat shock-inducing Hsp90 inhibitor gendanamycin. Whole cell lysates were prepared in non-ionic detergent buffer and immunoblotted for relative levels of Hsp72, a highly inducible member of the Hsp70 family of molecular chaperones, using monoclonal antibody C92F3A-5 (StressMarq Biosciences, Victoria, BC). Reactivity was detected using peroxidase-conjugated secondary antibody and chemiluminescent detection. To evaluate the relative ability of compounds to induce a heat shock response at the transcriptional level, a reporter cell line was used as previously described (Turbyville, et al., J. Nat. Prod. (2006) 69: 178-184, incorporated herein by reference). […]

[4] = tested on: MCF-7 breast cancer cells; assay: MTT proliferation/survival (cytotoxicity) assay, MCF-7; assay type: cell-based
Text: FIG. 1. Concentration- and time-dependent cell proliferation/survival inhibition by 2,3-dihydrowithaferin A-3β-O-sulfate (WA-SO4) and withaferin A (WA). MCF-7 breast cancer cells were exposed to the indicated concentrations of compounds and relative viable cell number determined by dye reduction assay after the time intervals noted. Data are representative of three independent experiments.
(§1) A standard tetrazolium dye [3-(4,5-di-methylthiazol-2-yl)-2,5-diphenyltetrazoliumbromide; MTT]-based colorimetric assay was used to measure the proliferation/survival of cells in triplicate wells using a 96-well plate-based format. […] Cells were exposed continuously to test compounds for 24 or 72 h at which times related viable cell number per well was determined as previously described (Wijeratne, et al., J Nat. Prod. (2003) 66: 1567-1573, incorporated herein by reference).

WI-38 fibroblasts = assay: Detection of F-actin aggregation (phalloidin staining); assay type: cell-based, Human; details: 4 μM, 4 or 24 h, FIG. 3
Description: FIGS. 3A-3D. Induction of F-actin aggregation. Following incubation with test compounds for the indicated intervals, WI-38 fibroblasts were fixed and stained with fluorescently-labeled phalloidin (green signal) to visualize the actin cytoskeleton. Cells were counterstained with DAPI (blue signal) to identify their nuclei. All images were acquired using the same magnification and exposure conditions. Data are representative of two independent experiments. (A) DMSO, 24 h incubation. (B) Withaferin A, 4 h. (C) 2,3-Dihydrowithaferin A-3β-O-sulfate, 4 h. (D) 2,3-Dihydrowithaferin A-3β-O-sulfate, 24 h.
Cells were seeded in 8-well chamber slides at a density of 2×10^4 cells per well and allowed to adhere for 48 h. Compounds 1 and 2 were freshly prepared as 5 mM stock solutions in DMSO and applied to cells at a final concentration of 4 μM in RPMI culture medium supplemented with 10% fetal bovine serum, Glutamax™, and penicillin/streptomycin. Control wells were treated with an equal volume of DMSO, not exceeding 0.2% in culture media. Cells were incubated for 4 or 24 h in the continuous presence of the indicated compounds, then washed twice with PBS, fixed with 4% paraformaldehyde/PBS (pH 7.6), and permabilized with 0.1% triton-X 100/PBS. […]

[5] = Conversion of 2,3-dihydrowithaferin A-3β-O-sulfate to withaferin A in cell culture media (HPLC); assay type: physicochemical; details: DMEM + 10% fetal bovine serum, 37° C., 4, 16, 24 h, FIG. 2
Description: FIGS. 2A and 2B. Conversion of 2,3-dihydrowithaferin A-3β-O-sulfate (solid circles) to withaferin A (solid squares) in cell culture medium. (A) Incubation of 2,3-dihydrowithaferin A-3β-O-sulfate in DMEM supplemented with 10% fetal bovine serum. (B) Incubation in cysteine/methionine-free DMEM supplemented with 10% fetal bovine serum. The concentration of 2,3-dihydrowithaferin A-3β-O-sulfate (solid circles) and its conversion to withaferin A (solid squares) was measured over time by HPLC using an external standard curve method.
Stock solutions of 2,3-dihydrowithaferin A-3β-O-sulfate in DMSO (50 μL) were diluted into cell culture medium (950 μL) to achieve the indicated starting concentration, mixed thoroughly and the solution incubated in a CO2 incubator at 37° C. Aliquots (100 μL) were withdrawn at 4, 16, and 24 h and subjected to HPLC analysis for 2,3-dihydrowithaferin A-3β-O-sulfate (RRT=18.5 min) and withaferin A (RRT=23.5 min) on a Kromasil C18 RP column (250×4.6 mm, […]) with gradient elution using 40-100% aqueous MeOH and using an ELSD detector. An external standard curve method was used to calculate the concentration of each compound in the sampled aliquots (Khajuria, et al., J Sep. Sci. (2004) 27: 541-546, incorporated herein by reference).

[6] = tested on: NCI-H460 (non small cell lung); assay: Proliferation/survival assay, NCI-H460; assay type: cell-based; details: same time dependence as in MCF-7
Description: as §1

[7] = tested on: PC-3M (metastatic prostate cancer); assay: Proliferation/survival assay, PC-3M; assay type: cell-based; details: same time dependence as in MCF-7
Description: as §1

Row | Structure (SMILES) | inhibition of tumor cell growth in vitro, CHP-100 [1] | inhibition of endothelial cell network formation [2] | heat shock reporter induction [3] | potency compared with withaferin A, MCF-7 ([4]; after ca. 72 hours) | inhibition of the proliferation/survival of MCF-7 breast cancer cells ([4]; dye reduction (MTT) assay, 24 or 72 h, FIG. 1) | induction of F-actin aggregation (WI-38 fibroblasts) | conversion to withaferin A in cell culture media [5] | proliferation/survival inhibition compared with withaferin A, NCI-H460 [6] | proliferation/survival inhibition compared with withaferin A, PC-3M [7]
1 | CC1=C(CO)C(=O)OC([C@@H](C)C2CCC3C4C[C@H]5O[C@]56[C@H](O)C=CC(=O)[C@]6(C)C4CC[C@@]32C)C1 (stereo partly drawn) [epi-withaferin A] | Concentration-dependent inhibition of tumor cell growth in vitro | Inhibition of endothelial cell network formation |  |  |  |  |  |  | 
2 | CC1=C(CO)C(=O)OC(C(C)C2CC[C@H]3[C@@H]4C[C@H]5O[C@]56[C@@H](O)[C@@H](OS(=O)(=O)O)CC(=O)[C@]6(C)[C@H]4CC[C@]23C)C1 (stereo partly drawn) [2,3-dihydrowithaferin A-3β-O-sulfate] |  |  | induces a robust heat shock response after overnight treatment of cells, albeit at higher concentrations than that of withaferin A | equipotent with withaferin A | concentration- and time-dependent inhibition | induced F-actin aggregation, but dihydrowithaferin A-3β-O-sulfate required a longer period of time | conversion of dihydrowithaferin A-3β-O-sulfate to withaferin A in cell culture media | same results | same results
